Measured values taken from ChEMBL document CHEMBL1141762, “Morphinane alkaloids with cell protective effects from Sinomenium acutum” (J Nat Prod, 2005).
Activity calls are given as the source filed them. The rule behind the calls is not given here.

System: PC-12
Test: Cell protective activity against rat PC12 cells assessed as protection against H2O2-induced injury
Assay type: functional, cell-based

Compound | Activity
COC1=C[C@H]2[C@H]3Cc4ccc(OC)c(O)c4[C@@]2(CCN3)CC1=O | Active
COC1=C[C@]23CCN(C)[C@H](Cc4ccc(OC)c(O)c42)C3=CC1=O | Active
COC1=C[C@H]2[C@H]3Cc4ccc(OC)c(O)c4[C@@]2(CCN3)C[C@@H]1O | Active
